Laboratory results taken from patent publication US20040071650A1, “Use of cyclosporin 7-thioamide derivatives for hair growth” (priority 2000, published 2004).
“Also recorded” adds a separate entry of the source.

Test system: mouse's back
Test: not given
Details: comparative experiments on mouse's back; cited from earlier work
In the case of Cyclosporin A [reference compound], the “hair regrowth effect relative to minoxidil” value is given as “about 100 times”.

Test system: C57BL/6 mice (female)
Test: Test of hair regrowth effects of 7-thioamide derivatives of cyclosporin on shaved backs of mice
Details: C57BL/6 female mice, 100 μl (0.1% w/v) applied on hair removed back once a day for 30 days; vehicle 32
Method: C57BL/6 mice (female), 42˜49 days old, were used in this test.
First of all, mice were removed of hair on their backs using an electric shaver, and weighed. The mice were divided into several groups with weights equally distributed. After one day of adaptation, cyclosporin A and cyclosporin derivatives were applied over the hair removed area once a day per each individual for 30 days. Here, the applied amount of cyclosporin A and derivatives thereof was 100 μl (0.1% w/v). The degree of hair growth were observed by naked eye. The ratio of the area where hairs newly grew to the hair removed area were determined.
For “Cyclosporin D 7-thioamide ([Val]^2-[^7ψ^8 CS—NH] cyclosporin)”, the “Area ratio (ratio of the area where hairs newly grew to the hair removed area)” value (“Area ratio” for short) was 79%.
For “Cyclosporin B 7-thioamide ([Ala]^2-[^7ψ^8 CS—NH] cyclosporin)”, the “Area ratio” value was 81%.
For Cyclosporin A [reference compound], the “Area ratio” value was 87%.
With “Cyclosporin C 7-thioamide ([Thr]^2-[^7ψ^8 CS—NH] cyclosporin)” the “Area ratio” value was 87%.
With “Cyclosporin G 7-thioamide ([Nva]^2-[^7ψ^8 CS—NH] cyclosporin)” the “Area ratio” value was 88%.

Same assay, conditions: hair regrowth evaluation of synthesized thioamide derivatives
With “Cyclosporin A 4-thioamide [cyclosporin 4-thioamide, reference compound]” the “hair regrowth effect (in words)” value was “not all of those derivatives have hair regrowth effect, but only cyclosporin 7-thioamide”.
For “Cyclosporin A 4,7-bis(thioamide) [cyclosporin 4,7-bis(tioamide), reference compound]”, the “hair regrowth effect (in words)” value was “not all of those derivatives have hair regrowth effect, but only cyclosporin 7-thioamide”.
In the case of “Cyclosporin A 7-thioamide ([^7ψ^8 CS—NH] cyclosporin A) [cyclosporin 7-thioamide]”, the “hair regrowth effect (in words)” value is reported as “does have the hair regrowth effect; also recorded: superior hair regrowth (restoring) effect to any other compounds”.
